The target of one series is T1, cyclooxygenase 2 (COX-2) (Homo sapiens, UniProt P35354).
T1 sequence (P35354 18-604): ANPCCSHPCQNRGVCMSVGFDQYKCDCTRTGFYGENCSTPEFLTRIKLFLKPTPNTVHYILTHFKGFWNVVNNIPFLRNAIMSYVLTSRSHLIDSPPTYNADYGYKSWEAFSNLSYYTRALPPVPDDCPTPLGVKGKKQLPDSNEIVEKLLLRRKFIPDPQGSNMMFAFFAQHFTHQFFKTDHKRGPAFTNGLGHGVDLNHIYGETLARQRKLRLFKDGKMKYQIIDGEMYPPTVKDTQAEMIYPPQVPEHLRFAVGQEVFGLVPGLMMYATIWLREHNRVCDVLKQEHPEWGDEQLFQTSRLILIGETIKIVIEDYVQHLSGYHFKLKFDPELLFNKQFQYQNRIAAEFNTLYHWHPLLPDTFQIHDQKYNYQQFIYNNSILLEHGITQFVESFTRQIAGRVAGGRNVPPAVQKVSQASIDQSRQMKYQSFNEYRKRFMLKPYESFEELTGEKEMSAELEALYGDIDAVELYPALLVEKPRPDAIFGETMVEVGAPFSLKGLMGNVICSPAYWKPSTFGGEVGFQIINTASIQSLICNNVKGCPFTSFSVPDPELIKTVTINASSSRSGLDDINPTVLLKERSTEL
Briefly: COX-2 inhibition (commercial kit, Cayman Chemicals item 701080). The class given is biochemical. The following applies: expressed per dry mass; 1% DMSO.

A further series deals with T2, 5-lipoxygenase (5-LOX) (Homo sapiens, UniProt P09917).
T2 construct: purchased abcam ab284521
T2 sequence (P09917 1-674): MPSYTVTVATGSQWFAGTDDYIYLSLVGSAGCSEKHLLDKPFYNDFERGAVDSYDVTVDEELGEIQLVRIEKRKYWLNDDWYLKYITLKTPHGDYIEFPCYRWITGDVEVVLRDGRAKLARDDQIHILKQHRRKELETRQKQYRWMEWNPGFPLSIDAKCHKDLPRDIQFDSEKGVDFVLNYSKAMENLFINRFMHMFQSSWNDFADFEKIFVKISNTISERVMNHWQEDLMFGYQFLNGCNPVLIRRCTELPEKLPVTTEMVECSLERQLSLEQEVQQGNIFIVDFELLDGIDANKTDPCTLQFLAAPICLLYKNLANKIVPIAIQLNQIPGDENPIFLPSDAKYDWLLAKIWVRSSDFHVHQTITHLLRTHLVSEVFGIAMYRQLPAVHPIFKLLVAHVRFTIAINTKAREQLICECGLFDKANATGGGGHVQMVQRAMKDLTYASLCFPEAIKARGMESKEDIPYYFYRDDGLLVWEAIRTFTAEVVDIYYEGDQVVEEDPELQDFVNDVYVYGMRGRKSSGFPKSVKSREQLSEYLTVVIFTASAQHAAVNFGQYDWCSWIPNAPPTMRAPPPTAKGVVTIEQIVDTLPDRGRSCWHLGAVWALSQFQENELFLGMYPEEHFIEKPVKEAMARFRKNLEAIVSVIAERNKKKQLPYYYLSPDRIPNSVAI
The series can be described thus: 5-LOX inhibition (commercial kit, abcam ab284521). Format: biochemical. The settings on record: expressed per dry mass; 1% DMSO. Here is the method:
The selected peel extracts as well as the standards of triterpenic compounds were analyzed for their antioxidative and anti-inflammatory properties. Due to their hydrophobic character, the samples were dissolved in dimethyl sulfoxide (DMSO). The content of DMSO in the reaction media in all the tests described below was 1% for all the tested samples as well as the controls.
The anti-inflammatory activity was evaluated using commercial kits for three enzymes of biological activity: cyclooxygenases 1 and 2 (COX-1 and COX-2) and 5-lipoxygenase (5-LOX), according to the instructions of the producers. Inhibition of the cyclooxygenases was measured using kits from Cayman Chemicals (Ann Arbor, MI, USA; items 701070 and 701080, respectively), while 5-LOX inhibition was measured using a kit from abcam (Cambridge, UK; item no. ab284521).

Series [1] in a line: ABTS radical cation scavenging activity. The settings on record: expressed per dry mass; 1% DMSO; 6 min incubation, 734 nm.
Description: The scavenging activity against ABTS^•+ was measured with a protocol described by Re et al. [63]. […] Then, 25 µL samples were mixed with 2.5 mL of ABTS^•+ solution and incubated for 6 min. […] Trolox was chosen as a reference antioxidant.
The nature of series [2]: DPPH radical scavenging activity. The following applies: expressed per dry mass; 1% DMSO; 30 min at room temperature, 517 nm. In general terms: Loss of DPPH colour is used to gauge radical scavenging.
Description: A method described by Yen and Chen was used to determine the activity against DPPH^• [64]. Briefly, 0.1 mL samples were mixed with 2 mL of DPPH^• solution (1 mM) and incubated at room temperature for 30 min. […] Trolox was chosen as a reference antioxidant.
The next series concerns the target T3, cyclooxygenase 1 (COX-1) (Homo sapiens, UniProt P23219).
T3 construct: purchased Cayman Chemicals 701070
Briefly: COX-1 inhibition (commercial kit, Cayman Chemicals item 701070). Format: biochemical. The following applies: expressed per dry mass; 1% DMSO.

The conditions of series [3]: heating; cited from earlier work.

The source of these data is publication PMC10058748, “Triterpenoids of Three Apple Cultivars—Biosynthesis, Antioxidative and Anti-Inflammatory Properties, and Fate during Processing” (Molecules, 2023).

Converted amounts (≈) assume the structure as drawn. A value given as a limit tells only on which side of the number the result lay.

T3 sequence (P23219 24-599): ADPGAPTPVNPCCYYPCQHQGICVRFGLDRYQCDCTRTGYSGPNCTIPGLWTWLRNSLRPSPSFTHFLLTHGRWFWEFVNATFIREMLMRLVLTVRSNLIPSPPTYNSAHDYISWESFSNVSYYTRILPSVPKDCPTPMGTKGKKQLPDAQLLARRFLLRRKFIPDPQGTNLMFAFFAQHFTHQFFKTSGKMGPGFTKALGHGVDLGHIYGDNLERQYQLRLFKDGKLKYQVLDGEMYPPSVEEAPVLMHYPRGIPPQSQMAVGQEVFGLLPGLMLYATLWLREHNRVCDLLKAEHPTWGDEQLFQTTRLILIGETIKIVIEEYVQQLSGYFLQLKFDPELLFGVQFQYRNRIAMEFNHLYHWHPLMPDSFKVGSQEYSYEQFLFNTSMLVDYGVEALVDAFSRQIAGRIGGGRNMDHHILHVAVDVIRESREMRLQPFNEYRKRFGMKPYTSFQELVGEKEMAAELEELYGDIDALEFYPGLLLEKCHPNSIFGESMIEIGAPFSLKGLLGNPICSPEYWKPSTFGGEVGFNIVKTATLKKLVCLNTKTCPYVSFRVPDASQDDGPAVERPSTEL

What is called IC50 is the midpoint of a concentration-inhibition curve. The low end stands for greater potency in that assay, the high end for weaker potency in that assay. `CC[C@H](CC[C@@H](C)[C@H]1CC[C@H]2[C@@H]3CC=C4C[C@@H](O)CC[C@]4(C)[C@H]3CC[C@]12C)C(C)C` [β-Sitosterol, β-sitosterol]: the IC50 was 921 µM on cyclooxygenase 2 (COX-2) and 4200 µM against 5-lipoxygenase (5-LOX).
`O=C(CCc1ccc(O)cc1)c1c(O)cc(O)cc1O[C@@H]1O[C@H](CO)[C@@H](O)[C@H](O)[C@H]1O` [Phloridzin, phloridzin]: in series [1], the “IC50 ABTS^•+ scavenging” value was determined as 34 ± 4 µg/mL (≈ 77.9 µM). Further, the “IC50 DPPH^• scavenging” value in series [2] stood at 23 ± 3 µg/mL (≈ 52.7 µM). For the same molecule, the IC50 against cyclooxygenase 1 (COX-1) is 2200 µM; against cyclooxygenase 2 (COX-2), 1480 µM; against 5-lipoxygenase (5-LOX), above 11500 µM.
Regarding `CC1(C)CC[C@]2(C(=O)O)CC[C@]3(C)C(=CC[C@@H]4[C@@]5(C)CC[C@H](O)C(C)(C)[C@@H]5CC[C@]43C)[C@@H]2C1` [Oleanolic Acid, Oleanolic acid], the “IC50 ABTS^•+ scavenging” value in series [1] came to 155 ± 7 µg/mL (≈ 339 µM). Moreover, the “IC50 DPPH^• scavenging” value in series [2] was 96 ± 5 µg/mL (≈ 210 µM). In addition, the IC50 against 5-lipoxygenase (5-LOX) is 1400 µM. In series [3], the “temperature above which degradative processes occur” value is “above 200 °C”.
As for `O=C(/C=C/c1ccc(O)c(O)c1)O[C@@H]1C[C@](O)(C(=O)O)C[C@@H](O)[C@H]1O` [Chlorogenic Acid, chlorogenic acid], the IC50 at cyclooxygenase 1 (COX-1) is 2960 µM; against cyclooxygenase 2 (COX-2), 1730 µM; at 5-lipoxygenase (5-LOX), above 14100 µM.
As for `C[C@H]1[C@H](C)CC[C@]2(C(=O)O)CC[C@]3(C)C(=CC[C@@H]4[C@@]5(C)CC[C@H](O)C(C)(C)[C@@H]5CC[C@]43C)[C@H]12` [Ursolic Acid, Ursolic acid], the half-inhibitory concentration (IC50) is 114 µM on cyclooxygenase 1 (COX-1), 67.9 µM on cyclooxygenase 2 (COX-2) and 1570 µM against 5-lipoxygenase (5-LOX).
